Source: US10596259B2, “Tumor radiosensitization with monomethyl auristatin E (MMAE) and derivatives thereof” (The Regents of the University of California, priority 2015, dated 2020)
Several values for one entry are separate records, joined by “and”; a condition that tells them apart may be missing. Equal entries are not always repeated. Entries after “also recorded” stand apart in the source; their conditions may differ. Where two headings read alike, the source gives them in different places. Non-standard residues stand in square brackets, D forms with d. Residues, ends and D or L forms follow the SMILES beside them. *: point of attachment. Dolaproine = CO[C@@H]([C@@H]1CCCN1)[C@@H](C)C(=O)O; Dil = CC[C@H](C)[C@H](NC)[C@@H](CC(=O)O)OC; X1 = C[C@@H](N*)[C@@H](O)c1ccccc1; NMeV = CN[C@H](C(=O)O)C(C)C

Legend:
[1] = test system: 779E cells; test: Alamar Blue cell viability assay; format: cell-based, Human
Method: (§1) Cells were plated in 96 well plates at varying cell densities and exposed to range of concentrations of MMAE or paclitaxel for 72 hrs. Alamar Blue (also known as resazurin) was added to the cells and allowed to incubate for 2 hrs at 37° C. Plates were analyzed using a plate reader with fluorescence measured at 560 nm. For irradiated cells, cells were treated with MMAE overnight followed by 6 Gy.
(§2) Cells were plated in 96-well plates and exposed to MMAE or paclitaxel for 72 hours and analyzed at 560 nm. For irradiated cells, cells were treated with MMAE overnight followed by 6 Gy.

[2] = test system: PANC-1 cells; test: Alamar Blue cell viability assay; format: cell-based, Human
Method: as §1, §2

[3] = test system: XPA-1 cells; test: Neutral comet assay (DNA double strand breaks); format: cell-based; conditions: MMAE overnight, then IR
Method: (§3) Cells were treated for indicated length and doses of MMAE followed by 6 Gy. Cells were harvested 15 minutes after IR and underwent neutral electrophoresis (Trevigen). Comet tails were counted in multiple fields (>60 cells per sample) and analyzed using CometScore (TriTek Corp).

[4] = test system: CAL-27 tumor xenografts; test: In vivo tumor xenograft growth with or without IR; parameters: species or system mice; conditions: day 0 iv: 0.5 nmoles antibody or 2 nmoles free MMAE; no IR
Method: CAL-27 tumor xenografts were established and tumor growth was measured with digital calipers. Tumor volume was calculated using the formula as ½*Length*Width^2. Mice were randomized into groups once the average tumor volume reached >150 mm^3. Mice were assigned to indicated groups in the Results. […] Free MMAE was injected on an equimolar basis to ACPP-cRGD-MMAE in final volume of 3% DMSO. MMAE doses and IR fractionation are as indicated in the Results.

[5] = test system: PANC-1 cells; test: γH2Ax immunostaining (foci formation); format: cell-based, Human
Method: (§4) Cells were grown on glass cover slips were treated with indicated concentrations of MMAE overnight and then irradiated. Two hours post IR, cells were fixed in 4% paraformaldehyde. Samples were then permeabilized in 0.25% Triton X-100, blocked in 1% BSA, incubated with antibody to γH2Ax for 1 hr at room temperature, washed, and incubated in secondary antibody for 1 hour at room temperature. Samples were incubated for 1 minute in a 1:5000 dilution of DAPI to label nuclei. The number of foci per cell was counted. 6-8 high power fields were counted per each group.
(§5) Cells grown on glass coverslips were treated with MMAE overnight and then irradiated. Two hours after IR, cells were fixed, permeabilized, and stained with antibody to […]. Nuclei were stained with 4′,6-diamidino-2-phenylindole (DAPI). Foci were counted in 6 to 8 high-power fields per group.

[6] = test system: HCT-116 cells; test: γH2Ax immunostaining (foci formation); format: cell-based, Human
Method: as §4, §5

[7] = test system: HCT-116 cells; test: Neutral comet assay (DNA double strand breaks); format: cell-based, Human
Method: Cells were treated for 24 hours with indicated doses of MMAE and then irradiated with 6 Gy. Cells were harvested 15 minutes post IR, suspended in agarose gel and lysed per assay directions (Trevigen). Samples underwent electrophoresis under neutral conditions and were then stained with Sybr Green. Comet tails were counted in multiple fields (>60 cells per sample) and analyzed using CometScore (TriTek Corp).
as §3

CC[C@H](C)[C@@H]([C@@H](CC(=O)N1CCC[C@H]1[C@H](OC)[C@@H](C)C(=O)N[C@H](C)[C@@H](O)c1ccccc1)OC)N(C)C(=O)[C@@H](NC(=O)[C@@H](NC)C(C)C)C(C)C [MMAE, monomethyl auristatin E] (H-[NMeV]V[Dil][Dolaproine]-X1)
IC50 ([1]; 72 hours exposure): 5.61 nM
IC50 ([1]; 72 hours exposure (Example 3)): 5.6 nM
IC50 ([2]; 72 hours exposure (Example 3), read-out: IC50): 0.6 nM
IC50 ([2]; 72 hours exposure, read-out: IC50): 0.6 nM
IC50 ([2]; IR 6 Gy combined with MMAE (Example 3), read-out: IC50 for MMAE): 0.4 nM
IC50 ([2]; MMAE alone, no IR, continuous exposure, viability at 72 hours, read-out: IC50 for MMAE): 0.81 nM
IC50 ([2]; MMAE overnight then 6 Gy IR, continuous exposure, viability at 72 hours, read-out: IC50 for MMAE): 0.35 nM
relative reduction in the IC50 of MMAE ([2]; MMAE with 6 Gy IR vs MMAE alone): > 50% and ~50%
IC50 ([2]; non-irradiated (Example 3), read-out: IC50 for MMAE): 0.8 nM
comet tail length [3]: significantly increased comet tail length
tumor growth, non-irradiated tumors [4]: delayed tumor growth
γH2AX foci formation vs IR alone ([5]; MMAE pre-treatment, then IR): further significant enhancement; also recorded: significantly increased
γH2AX staining vs vehicle ([5]; non-irradiated cells): did not significantly increase; also recorded: did not alter DNA damage
γH2AX foci formation vs IR alone ([6]; MMAE pre-treatment, then IR): also seen in HCT-116 cells; also recorded: significantly increased
DNA damage (γH2AX) ([6]; nonirradiated cells): did not alter DNA damage
comet tail length vs IR alone ([7]; 1 nM MMAE 24 hours, then 6 Gy): did not significantly increase; also recorded: did not increase DNA damage over IR alone
comet tail length vs IR alone ([7]; 5 nM MMAE 24 hours, then 6 Gy): significant increase; also recorded: significantly increased comet tail length
comet tail length vs IR alone ([7]; 5 nmol/L MMAE for 2 or 4 hours, then IR): did not increase comet tail length
comet tail length vs vehicle ([7]; non-irradiated, 1 or 5 nM MMAE overnight): no significant effect
